According to patent US11053205B2, “Phenazine derivatives as antimicrobial agents” (University of Florida Research Foundation, Incorporated, priority 2017, dated 2021):

Legend:
MRSA-2 biofilms = assay: Calgary Biofilm Device (CBD) assay, MBC/MBEC; conditions: CBD; for MRSA-2 MBEC: biofilm eradication
MRSA BAA-1707 biofilms = assay: Calgary Biofilm Device (CBD) assay, MBC/MBEC; conditions: CBD, biofilm eradication
MRSA BAA-1707 = assay: MIC, broth microdilution (CLSI); conditions: 16 to 18 hours at 37° C.; 0.10 = lowest concentration tested
MRSE 35984 = assay: MIC, broth microdilution (CLSI); conditions: 16 to 18 hours at 37° C.
VRE 700221 = assay: MIC, broth microdilution (CLSI); conditions: 16 to 18 hours at 37° C.
MRSE 35984 biofilms = assay: Calgary Biofilm Device (CBD) assay, MBC/MBEC; conditions: CBD; for MRSE 35984 MBEC: biofilm eradication

Row | SMILES | IC50 (HeLa cells) [µM] | MRSA BAA-1707 MBEC (MRSA BAA-1707 biofilms) [µM] | MRSA BAA-1707 MIC (MRSA BAA-1707) [µM] | MRSE 35984 MIC (MRSE 35984) [µM] | VRE 700221 MIC (VRE 700221) [µM] | other results
1 | Cc1ccc2nc3c(O)c(Br)cc(Br)c3nc2c1 [52A] | > 100 |  |  |  |  | 
2 | CCc1ccc2nc3c(O)c(Br)cc(Br)c3nc2c1 [53A] | > 50 |  |  |  |  | 
3 | CCCc1ccc2nc3c(O)c(Br)cc(Br)c3nc2c1 [54A] | > 50 |  |  |  |  | 
4 | CC(C)(C)c1ccc2nc3c(O)c(Br)cc(Br)c3nc2c1 [55A] | > 100 |  |  |  |  | MRSA-2 MBEC (MRSA-2 biofilms): 3.13 µM
5 | Cc1cc(C)c2nc3c(Br)cc(Br)c(O)c3nc2c1 [56A] | > 100 | 4.69 |  |  |  | 
6 | Cc1cc2nc3c(O)c(Br)cc(Br)c3nc2c(C)c1C [59A] | > 100 |  |  |  |  | 
7 | Oc1c(Br)cc(Br)c2nc3cc(Oc4ccccc4)ccc3nc12 [63A] | > 100 | 2.35 | 0.075 | 0.1 | 0.2 | 
8 | CCN(CC)c1ccc2nc3c(O)c(Br)cc(Br)c3nc2c1Br [64A] | > 100 | 4.69 |  |  |  | 
9 | Cc1ccc2nc3c(O)ccc(Br)c3nc2c1 [66A] | > 100 |  |  |  |  | 
10 | COCCOCCOCCOCCOC(=O)Oc1c(Br)cc(Br)c2nc3cc(Cl)ccc3nc12 [77A] |  |  | 0.0005 |  |  | 
11 | COCCOCCOCCOCCOC(=O)Oc1c(Br)cc(Br)c2nc3cc(Oc4ccccc4)ccc3nc12 [78A] |  |  | 0.1 |  |  | 
12 | CC1=C(C)C(=O)C(COC(=O)OCOc2c(Br)cc(Br)c3nc4ccccc4nc23)=C(C)C1=O [86A] |  | 75 | 2.35 |  |  | 
13 | CC1=C(C)C(=O)C(COC(=O)OCOc2c(Br)cc(Br)c3nc4cc(Cl)ccc4nc23)=C(C)C1=O [87A] | > 100 | 12.5 | 0.15 |  |  | Hemolysis at 200 μM (human red blood cells): 2.7%
14 | N#CC(C#N)=NNc1cccc(Cl)c1 [CCCP, reference compound] |  |  |  |  |  | MRSA-2 MBEC (MRSA-2 biofilms): 1000 µM; MRSA-2 MBC (MRSA-2 biofilms; planktonic killing): 31.3 µM; MRSE 35984 MBEC (MRSE 35984 biofilms): 93.8 µM; MRSE 35984 MBC (MRSE 35984 biofilms; planktonic killing): 31.3 µM
15 | OC[C@H]1O[C@@H](Oc2c(Br)cc(Br)c3nc4ccccc4nc23)[C@H](O)[C@@H](O)[C@@H]1O [Compound 28] |  |  | >100 | >100 | >100 | 
16 | COCCOCCOCCOC(=O)OCOc1c(Br)cc(Br)c2nc3ccccc3nc12 [Compound 30] |  |  | >100 | >100 | >100 | 
17 | CS(=O)(=O)N1CCN(C(=O)Oc2c(Br)cc(Br)c3nc4ccccc4nc23)C1=O [Compound 31] |  | 75 |  | 0.78 | 3.13 | 
18 | Oc1c(Br)cc(Br)c2nc3cc(Oc4ccccc4)ccc3nc12 [Compound 34] |  | 2.35 | 0.1 | 0.1 | 0.2 | 
19 | CCN(CC)c1ccc2nc3c(O)c(Br)cc(Br)c3nc2c1Br [Compound 35] |  | 4.69 | 0.15 | 0.1 | 0.30 | MRSE 35984 MBEC (MRSE 35984 biofilms): 1.56 µM
20 | CCc1cccc2nc3c(Br)cc(Br)c(O)c3nc12 [Compound 37] |  |  | >100 | >100 | >100 | 
21 | CCOC(=O)c1ccc2nc3c(O)c(Br)cc(Br)c3nc2c1 [Compound 38] |  |  | >100 |  |  | 
